From EPA's ToxValDB 9.5 (doi:10.2903/j.efsa.2016.4421)

How the values were obtained:
Aphidius rhopalosiphi = test: LR50; higher = less toxic; conditions: not reported, mortality
Daphnia magna = conditions: chronic/long-term; duration: 21 days; growth
Apis mellifera = conditions: acute, mortality
Folsomia candida = conditions: chronic/long-term; reproduction
Lepomis macrochirus = conditions: acute; duration: 96 hours; mortality
Oryctolagus sp. = conditions: reproduction developmental
Hypoaspis aculeifer = conditions: chronic/long-term; reproduction
Anas platyrhynchos = conditions: acute; oral; unspecified; mortality
Oncorhynchus mykiss = conditions: acute; duration: 96 hours; mortality

Structure (SMILES): COc1cc(OC)nc(NC(=O)NS(=O)(=O)c2cc(NC=O)ccc2C(=O)N(C)C)n1 [Foramsulfuron]
- LR50 (Aphidius rhopalosiphi; duration: 7 days): > 60 g/ha
- LR50 (Aphidius rhopalosiphi): > 5.6 g/ha
- LD50 (Colinus virginianus; acute, oral, mortality): > 2000 mg/kg
- NOEL (Colinus virginianus; reproduction developmental): 104 mg/kg-day
- NOEC (Daphnia magna): 100 mg/L
- LD50 (Apis mellifera; dermal): > 4.66 µg/piece
- LD50 (Apis mellifera; duration: 48 hours, oral, unspecified): > 5 µg/piece
- NOEC (Folsomia candida): 100 mg/kg
- LC50 (Lepomis macrochirus): > 100 mg/L
- NOAEL (Oryctolagus sp.; body weight): 50 mg/kg-day
- NOEL (Oryctolagus sp.; no effects): 500 mg/kg-day
- LD50 (Rattus norvegicus; acute, oral, mortality): > 5000 mg/kg
- NOEL (Rattus norvegicus; reproduction developmental, F, reproduction): 1430 mg/kg-day
- NOAEL (Rattus norvegicus; reproduction developmental, duration: 2 years, reproduction): 25 mg/kg-day
- NOEC (Hypoaspis aculeifer): 1000 mg/kg
- LD50 (Anas platyrhynchos): > 2000 mg/kg
- LC50 (Oncorhynchus mykiss): > 100 mg/L
